Test results from patent publication US20140377340A1, “HLA-DR BINDING PEPTIDES AND THEIR USES” (priority 2007, published 2014).

How the values were obtained:
[1] = biological target: T1, purified HLA DRB1*0404 (Homo sapiens, UniProt P01903+P01911, A100R/A169T/F76Y/I96L/K127E/L162R/M171V/N62H/P40V/Q125Y/R42H/S133A/S149N/S66Y/V209L/W38E); test: HLA-DR radioligand binding inhibition assay, DRB1*0404; conditions: IC50 nM purified HLA DRB1 *0404, purified HLA DRB1*0404
T1 construct: purified from EBV transformed homozygous cell lines or single MHC allele transfected 721.221, C1R, or fibroblast lines; made in house
Outline: (§1)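 The probe, 1-10 nM radiolabeled peptide, was incubated with 1 μM to 1 nM HLA-DR for 2 days in the presence of protease inhibitors.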

[2] = biological target: T2, purified HLA DRB3*0101 (Homo sapiens, UniProt P01903+P79483); test: HLA-DR radioligand binding inhibition assay, DRB3*0101; conditions: IC50 nM purified HLA DRB3 *0101, purified HLA DRB3*0101
T2 construct: purified from EBV transformed homozygous cell lines or single MHC allele transfected 721.221, C1R, or fibroblast lines; made in house
Outline: (§2)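 Competitor peptides, tested at 30 μg/mL to […] in 2-4 independent experiments, compete with 1-10 nM radiolabeled peptide for binding to purified HLA-DR during a 2-day incubation. Bound counts come from antibody-captured complexes.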

[3] = biological target: T3, purified HLA DRB1*1501 (Homo sapiens, UniProt P01903+P01911); test: HLA-DR radioligand binding inhibition assay, DRB1*1501
T3 construct: purified from EBV transformed homozygous cell lines or single MHC allele transfected 721.221, C1R, or fibroblast lines; made in house
Outline: as §1

[4] = biological target: T4, purified HLA DRB1*0405 (Homo sapiens, UniProt P01903+P01911, A100R/A169T/D86S/F76Y/I96L/K127E/L162R/M171V/N62H/P40V/Q125Y/R42H/S133A/S149N/S66Y/V115G/V209L/W38E); test: HLA-DR radioligand binding inhibition assay, DRB1*0405; conditions: IC50 nM purified HLA DRB1 *0405, purified HLA DRB1*0405
T4 construct: purified from EBV transformed homozygous cell lines or single MHC allele transfected 721.221, C1R, or fibroblast lines; made in house
Outline: as §1

[5] = biological target: T5, purified HLA DRB1*0802 (Homo sapiens, UniProt P01903+P01911, A100R/A103L/A169T/F76Y/H45Y/I96F/K41T/L162R/M171V/P40S/Q125H/Q178H/Q39Y/Q99D/R218S/R42G/S66Y/V115G/W38E); test: HLA-DR radioligand binding inhibition assay, DRB1*0802; conditions: IC50 nM purified HLA DRB1 *0802, purified HLA DRB1*0802
T5 construct: purified from EBV transformed homozygous cell lines or single MHC allele transfected 721.221, C1R, or fibroblast lines; made in house
Method: (§3) Instead, wells of an opaque white 96-well Optiplate (Packard) are coated with 3 μg (100 μl@ 30 μg/ml) of HLA-specific antibody (Ab) that “capture” complexes of radiolabeled MHC and unlabeled peptide transferred from the molecular binding assay plate in 100 μl of 0.05% NP40/PBS. After a 3-hour incubation period, the supernatant is decanted and scintillation fluid (Microscint 20) added. Captured complexes are then measured on a microplate scintillation and luminescence counter (TopCount NXTTM; Packard).
HLA-DR purification. Fifteen distinct HLA-DR molecules were used in quantitative assays to measure the binding of peptides to solubilized HLA-DR molecules. […] Briefly, columns of inactivated Sepharose CL4B and Protein A Sepharose were used as pre-columns. HLA-DR molecules were captured by passage of lysates over LB3.1 monoclonal antibody (anti-HLA-DRA) columns. Antibody columns were washed with 10 mM Tris-HCL, pH8.0 with 1% (v/v) NP-40, followed by PBS containing 0.4% (w/v) n-octylglucoside. […] The pH was reduced to 8.0 and the eluates were concentrated by centrifugation in Centriprep 30 concentrators at 2000 rpm (Amicon, Beverly, Mass.).
Briefly, 1-10 nM of radiolabeled peptide was co-incubated for 2 days at either room temperature or 37° C. with 1 μM to 1 nM purified HLA-DR molecules in the presence of a cocktail of protease inhibitors. Assays were performed at various pH conditions, ranging from pH 4 to pH 7. […] After incubation, the percentage of HLA-DR-bound radioactivity is determined by capturing HLA-DR/peptide complexes on Optiplates (Packard Instruments, Meriden, Conn.) coated with the LB3.1 antibody and determining bound counts per minute using the TopCount microscintillation counter (Packard Instruments). […] Competitor peptides are tested in 2-4 complete, independent experiments, at concentrations ranging from […].

[6] = biological target: T6, purified HLA DRB1*1201 (Homo sapiens, UniProt P01903+P01911, A100R/A169T/D57E/D86V/F55L/H45Y/K41T/L162R/M171V/P40S/Q125H/Q178H/Q39Y/Q99D/R42G/S66L/T262R/V114A/V67L/W38E/Y59H/Y61H/Y89S); test: HLA-DR radioligand binding inhibition assay, DRB1*1201
T6 construct: purified from EBV transformed homozygous cell lines or single MHC allele transfected 721.221, C1R, or fibroblast lines; made in house
Outline: as §2

[7] = biological target: T7, purified HLA DRB1*0901 (Homo sapiens, UniProt P01903+P01911, A100R/A103E/D57H/D86V/F55Y/F60I/F76Y/I96F/K127E/L162R/M171V/P40D/Q125H/Q99R/R33Q/R42F/S133A/S66N/T210M/V115G/W38K/Y107V/Y59G/Y89S); test: HLA-DR radioligand binding inhibition assay, DRB1*0901; conditions: IC50 nM purified HLA DRB1 *0901, purified HLA DRB1*0901
T7 construct: purified from EBV transformed homozygous cell lines or single MHC allele transfected 721.221, C1R, or fibroblast lines; made in house
Method: as §3
HLA-DR purification. Fifteen distinct HLA-DR molecules were used in quantitative assays to measure the binding of peptides to solubilized HLA-DR molecules. […] Briefly, columns of inactivated Sepharose CL4B and Protein A Sepharose were used as pre-columns. HLA-DR molecules were captured by passage of lysates over LB3.1 monoclonal antibody (anti-HLA-DRA) columns. Antibody columns were washed with 10 mM Tris-HCL, pH8.0 with 1% (v/v) NP-40, followed by PBS containing 0.4% (w/v) n-octylglucoside.
Briefly, 1-10 nM of radiolabeled peptide was co-incubated for 2 days at either room temperature or 37° C. with 1 μM to 1 nM purified HLA-DR molecules in the presence of a cocktail of protease inhibitors. Assays were performed at various pH conditions, ranging from pH 4 to pH 7. […] After incubation, the percentage of HLA-DR-bound radioactivity is determined by capturing HLA-DR/peptide complexes on Optiplates (Packard Instruments, Meriden, Conn.) coated with the LB3.1 antibody and determining bound counts per minute using the TopCount microscintillation counter (Packard Instruments).

[8] = biological target: T8, purified HLA DRB4*0101 (Homo sapiens, UniProt P01903+P13762, G164S); test: HLA-DR radioligand binding inhibition assay, DRB4*0101; conditions: IC50 nM purified HLA DRB4 *0101, purified HLA DRB4*0101
T8 construct: purified from EBV transformed homozygous cell lines or single MHC allele transfected 721.221, C1R, or fibroblast lines; made in house
Outline: as §1

[9] = biological target: T9, purified HLA DRB1*0701 (Homo sapiens, UniProt P01903+P01911, A100R/A102G/A103Q/D57E/D86V/E43K/F76Y/K127E/L162R/M171V/P40G/Q125H/Q99D/R33Q/R42Y/R54Q/S133A/S66F/T210M/V115G/Y107V/Y59L/Y89S); test: HLA-DR radioligand binding inhibition assay, DRB1*0701; conditions: IC50 nM purified HLA DRB1 *0701, purified HLA DRB1*0701
T9 construct: purified from EBV transformed homozygous cell lines or single MHC allele transfected 721.221, C1R, or fibroblast lines; made in house
Outline: as §1

- IC50 [1]: 493 nM
- IC50 [2]: > 20000 nM
- IC50 [3]: 690 nM
- IC50 [4]: 5120 nM
- IC50 [5]: > 20000 nM
- IC50 [6]: 19000 nM
- IC50 [7]: > 20000 nM
- IC50 [8]: 444 nM
- IC50 [9]: 271 nM
SMILES: CSCC[C@H](NC(=O)CNC(=O)[C@H](CC(C)C)NC(=O)CNC(=O)[C@H](Cc1ccc(O)cc1)NC(=O)[C@@H](N)CS)C(=O)N[C@@H](CCC(=O)O)C(=O)N[C@@H](Cc1c[nH]cn1)C(=O)N[C@@H](CC(C)C)C(=O)N[C@@H](CCCNC(=N)N)C(=O)N[C@@H](CCC(=O)O)C(=O)N[C@H](C(=O)N[C@@H](CCCNC(=N)N)C(=O)N[C@@H](C)C(=O)N[C@H](C(=O)O)C(C)C)C(C)C [Peptide 9019.0044]
